The values below come from article PMC7168207, “Dibasic Derivatives of Phenylcarbamic Acid as Prospective Antibacterial Agents Interacting with Cytoplasmic Membrane” (Antibiotics, 2020).

Several values for one entry are separate records, joined by “and”; a condition that tells them apart may be missing. Equal values may be shown once.

For data set [1], the system named is S. aureus ATCC 29213. Kind of data set: MIC, broth microdilution. It is filed as cell-based, Staphylococcus aureus. Conditions: Staphylococcus aureus, ATCC29213; SA = S. aureus ATCC 29213; read-out: MICs. As to the method: (§1) The modified broth microdilution method was used for in vitro evaluation of minimum inhibitory concentration. A small portion of bacterial colony cultivated overnight onto nutrient agar (Oxoid, Basingstoke, UK) with 5% bovine blood was suspended in sterile phosphate-buffered saline to get cell density 0.5 McFarland. This inoculum was diluted to reach the final concentration of bacterial cells 5 × 10^5 CFU/mL in the wells. […] For plates with staphylococci, cation adjusted Mueller–Hinton (CaMH) broth (Oxoid) was used; enterococci were cultivated in brain heart infusion (BHI, Oxoid). […] A drug-free control and a sterility control were included. Inoculated plates were incubated in aerobic atmosphere at 37 °C overnight. […] After evaluation of MICs, 10 µL of aliquots from the wells were put onto Mueller–Hinton agar. The agar plates were cultivated at 37 °C for 24 h. The minimum bactericidal concentration (MBC) was defined as the lowest concentration of the compound that killed 99.9% of the bacteria compared to the starting inoculum.

For data set [2], the system named is methicillin-resistant S. aureus 63718. Kind of data set: MIC, broth microdilution. It counts as cell-based, Staphylococcus aureus. The settings on record: Staphylococcus aureus; MRSA1 = S. aureus 63718; read-out: MICs. As to the method:
as §1

Data set [3] has as its system methicillin-resistant S. aureus SA 3202. As to the kind of experiment: MIC, broth microdilution. It is filed as cell-based, Staphylococcus aureus. Conditions: Staphylococcus aureus; MRSA3 = SA 3202; read-out: MICs. As to the method:
as §1
(In general: Broth dilution looks for growth in wells or tubes with falling amounts of substance.)

For data set [4], the system named is methicillin-resistant S. aureus SA 630. Kind of data set: MIC, broth microdilution. It counts as cell-based, Staphylococcus aureus. The settings on record: Staphylococcus aureus; MRSA2 = SA 630; read-out: MICs. On the procedure:
as §1

For data set [5], the system named is E. faecalis ATCC 29212. As to the kind of experiment: MIC, broth microdilution. It counts as cell-based, Enterococcus faecalis. Conditions: Enterococcus faecalis, ATCC 29212 / ATCC 29213; EF = E. faecalis ATCC 29213. On the procedure: as §1
Data set [6] concerns vancomycin-resistant enterococci VRE 342B. As to the kind of experiment: MIC, broth microdilution. It is filed as cell-based, Enterococcus faecalis. The settings on record: Enterococcus; VRE1 = VRE 342B; read-out: MICs. As to the method:
as §1

Data set [7] concerns vancomycin-resistant enterococci VRE 368. Kind of data set: MIC, broth microdilution. The settings on record: Enterococcus; VRE2 = VRE 368; read-out: MICs. It is filed as cell-based, Enterococcus faecalis. On the procedure: as §1
In data set [8] the test system is vancomycin-resistant enterococci VRE 725B. As to the kind of experiment: MIC, broth microdilution. It counts as cell-based, Enterococcus faecalis. The settings on record: Enterococcus; VRE3 = VRE 725B; read-out: MICs. On the procedure:
as §1

The subject of data set [9] is Candida albicans CCM 8261. Kind of data set: minimum fungistatic concentration, RPMI 1640. It counts as cell-based. Conditions: CCM8261, CA = C albicans CCM 8261, 48 h. On the procedure:
Fungistatic activity was tested similarly in RPMI (Roswell Park Memorial Institute) 1640 medium (Sigma, Pool, UK). […] A growth control and sterility control were included. The colonies of C. albicans grown overnight on Sabourad dextrose agar were suspended in sterile phosphate-buffered saline (PBS) to get cell density 0.5 McFarland. The inoculum was diluted to get a final concentration of 10^3 CFU/mL in the wells. Plates were inoculated and cultivated at 37 °C for 48 h. The minimum fungistatic concentration was visually evaluated as the lowest concentration of a tested compound, which inhibited 100% of yeast growth. 5-Flucytosin (Sigma, UK) was used as a positive control.

Data set [10] concerns human monocytic leukemia THP-1 cells. Kind of data set: in vitro antiproliferative assay (WST-1). It counts as cell-based. Conditions: Homo sapiens, THP-1, 24 h, THP-1 cells, WST-1, 24 h; read-out: Tox IC50. On the procedure:
The preliminary in vitro screening of the antiproliferative effect of the investigated compounds was performed using a Water Soluble Tetrazolium salts-1 (WST-1) assay kit and a human monocytic leukemia THP-1 cell line by means of the method described recently. The principle of the WST-1 assay kit is the […] mitochondrial dehydrogenases by antiproliferative compounds. The activity of this enzyme directly correlates with the number of metabolically active cells in the culture. The antiproliferative effect was evaluated as the IC50 value (the concentration of the compound causing 50% inhibition of cell proliferation).
Human monocytic leukemia THP-1 cells were used for in vitro antiproliferative assay. Cells were obtained from the European Collection of Cell Cultures (ECACC, Salisbury, UK) and routinely cultured in RPMI (Roswell Park Memorial Institute) 1640 medium supplemented with 10% fetal bovine serum, 2% L-glutamine, 1% penicillin, and streptomycin at 37 °C with 5% CO2. Cells were passaged at approximately one-week intervals. The antiproliferative activity of the compounds was determined using a Water Soluble Tetrazolium Salts-1 (WST-1, 2-(4-iodophenyl)-3-(4-nitrophenyl)-5-(2,4-disulfophenyl)-2H-tetrazolium) assay kit (Roche Diagnostics, Mannheim, Germany) according to the manufacturer’s instructions. The tested compounds were dissolved in DMSO and added in various compound concentrations to the cell suspension in the culture RPMI 1640 medium. The maximum concentration of DMSO in the assays never exceeded 0.1%. Subsequently, the cells were incubated at 37 °C with 5% CO2 for 24 h. For WST-1 assays, cells were seeded into 96-well plates (5 × 10^4 cells/well in 100 μL culture medium) in triplicate in serum-free RPMI 1640 medium, and measurements were taken 24 h after the treatment with the compounds. The median inhibition concentration values, IC50, were deduced through the production of a dose-response curve. All data were evaluated using GraphPad Prism 5.00 software (GraphPad Software, San Diego, CA, USA).
On the technique in general: Formazan colour is commonly taken as a measure of viable cells.

Details of data set [11]: method as in PMID 30274224. The settings on record: isocratic RP-HPLC, extrapolated lipophilicity index; cited from earlier work.
Details of data set [12]: method as in PMID 30274224. Conditions: cited from earlier work.
On the set-up of data set [13]: method as in PMID 30274224. The settings on record: methanolic solutions, c = 8.0 × 10^−5 M; cited from earlier work.

One may read the IC50 as the concentration at which inhibition is half-maximal. Take `CCCCOc1ccccc1NC(=O)OC(CN(CCC)CCC)CN1CCCC1` (centres unmarked) [1a]: the MIC in data set [1] is > 256 µg/mL and > 427 µM; in data set [2], > 256 µg/mL and > 427 µM; in data set [3] it was > 256 µg/mL and > 427 µM; in data set [4] it was > 256 µg/mL and > 427 µM; in data set [5], > 256 µg/mL and > 427 µM; in [6] it was > 256 µg/mL and > 427 µM. The MIC in data set [7] is > 256 µg/mL and > 427 µM; in data set [8] it was > 256 µg/mL and > 427 µM; in data set [9], > 128 µg/mL and > 213 µM. For the same compound, the IC50 in [10] is 10.8 ± 1.11 µM. Moreover, the log kw in data set [11] is reported as 3.7688. For the same compound, the “γ (surface tension, relative surface activity)” value in data set [12] is recorded as 0.06464 N/m. In data set [13], the “log ε2 (Ch-T)” value is on record as 4.19.

As for `CCCCCOc1ccccc1NC(=O)OC(CN(CCC)CCC)CN1CCCC1` (centres unmarked) [1b], the MIC in [1] was > 256 µg/mL and > 417 µM; in [2] it was > 256 µg/mL and > 417 µM; in data set [3] it was > 256 µg/mL and > 417 µM; in data set [4], > 256 µg/mL and > 417 µM; in [5], > 256 µg/mL and > 417 µM; in data set [6] it was > 256 µg/mL and > 417 µM. For the same compound, the MIC in data set [7] was > 256 µg/mL and > 417 µM; in data set [8], > 256 µg/mL and > 417 µM; in [9], > 128 µg/mL and > 208 µM. Besides, the IC50 in [10] was 12.5 ± 1.22 µM. In data set [11], the log kw was 4.0454. In addition, the “γ (surface tension, relative surface activity)” value in data set [12] is recorded as 0.06366 N/m. The “log ε2 (Ch-T)” value in data set [13] was 4.05.

Consider `CCCCCCOc1ccccc1NC(=O)OC(CN(CCC)CCC)CN1CCCC1` (centres unmarked) [1c], for which the MIC in data set [1] is > 256 µg/mL and > 407 µM; in [2], > 256 µg/mL and > 407 µM; in data set [3], > 256 µg/mL and > 407 µM; in [4], > 256 µg/mL and > 407 µM; in data set [5], > 256 µg/mL and > 407 µM; in data set [6], > 256 µg/mL and > 407 µM. In addition, the MIC in data set [7] was > 256 µg/mL and > 407 µM; in data set [8], > 256 µg/mL and > 407 µM; in data set [9], > 128 µg/mL and > 203 µM. In addition, in data set [10], the IC50 is 15.4 ± 0.22 µM. In addition, the log kw in data set [11] is 4.6049. In data set [12], the “γ (surface tension, relative surface activity)” value is on record as 0.06222 N/m. The “log ε2 (Ch-T)” value in data set [13] was 4.52.

Take `CCCCCCCOc1ccccc1NC(=O)OC(CN(CCC)CCC)CN1CCCC1` (centres unmarked) [1d]: the MIC in data set [1] was > 256 µg/mL and > 398 µM; in data set [2] it was > 256 µg/mL and > 398 µM; in data set [3], > 256 µg/mL and > 398 µM; in [4], > 256 µg/mL and > 398 µM; in [5] it was > 256 µg/mL and > 398 µM; in data set [6], > 256 µg/mL and > 398 µM. Also, the MIC is > 256 µg/mL and > 398 µM in data set [7]; > 256 µg/mL and > 398 µM in [8]; > 128 µg/mL and 199 µM in data set [9]. For the same compound, the IC50 in data set [10] stood at 16.3 ± 0.7 µM. Besides, in [11], the log kw is listed as 4.9487. In addition, the “γ (surface tension, relative surface activity)” value in data set [12] is listed as 0.05985 N/m. The “log ε2 (Ch-T)” value in data set [13] is 4.08.

As for `CCCCOc1cccc(NC(=O)OC(CN(CCC)CCC)CN2CCCC2)c1` (centres unmarked) [1e], the MIC was 64 µg/mL and 129 µM in [1]; 64 µg/mL and 129 µM in data set [2]; 64 µg/mL and 129 µM in data set [3]; 64 µg/mL and 129 µM in [4]; 128 µg/mL and 259 µM in data set [5]; 32 µg/mL and 65.1 µM in [6]. The MIC in data set [7] is 64 µg/mL and 129 µM; in data set [8], 32 µg/mL and 65.1 µM; in data set [9], > 128 µg/mL and > 259 µM. The IC50 in [10] was found to be 4.2 ± 0.79 µM. In addition, the log kw in data set [11] is given as 4.0258. Moreover, the “γ (surface tension, relative surface activity)” value in [12] is on record as 0.06316 N/m. Further, the “log ε2 (Ch-T)” value in data set [13] is recorded as 4.24.

In the case of `CCCCOc1ccccc1NC(=O)OC(CN(CCC)CCC)CN1CCCCCC1` (centres unmarked) [1i], the MIC in data set [1] was > 256 µg/mL and > 407 µM; in data set [2], > 256 µg/mL and > 407 µM; in data set [3] it was > 256 µg/mL and > 407 µM; in data set [4], > 256 µg/mL and > 407 µM; in [5] it was > 256 µg/mL and > 407 µM; in data set [6] it was > 256 µg/mL and > 407 µM. For the same compound, the MIC in data set [7] was > 256 µg/mL and > 407 µM; in data set [8], > 256 µg/mL and > 407 µM; in data set [9], > 128 µg/mL and > 203 µM. Besides, the IC50 in data set [10] was 23.1 ± 0.95 µM. For the same compound, the log kw in data set [11] is on record as 4.4679. In data set [12], the “γ (surface tension, relative surface activity)” value is listed as 0.06302 N/m. Also, the “log ε2 (Ch-T)” value in data set [13] is given as 4.08.

Regarding `Nc1[nH]c(=O)ncc1F` [5-FC, flucytosine, reference compound], the MIC in data set [9] was 1 µg/mL and 7.75 µM.

`CC1(C)S[C@@H]2[C@H](NC(=O)[C@H](N)c3ccccc3)C(=O)N2[C@H]1C(=O)O` [AMP, ampicillin, reference compound]: the MIC in data set [1] was 2 µg/mL and 5.72 µM; in data set [2], 16 µg/mL and 45.8 µM; in data set [3], > 16 µg/mL and > 45.8 µM; in data set [4] it was > 16 µg/mL and > 45.8 µM; in data set [8], 2 µg/mL and 5.72 µM. Also, in data set [10], the IC50 is greater than 30 µM.

On to `CC[C@@]1(O)C(=O)OCc2c1cc1n(c2=O)Cc2cc3ccccc3nc2-1` [CMP, camptothecin, reference compound], for which, in data set [10], the IC50 is roughly 0.2 µM.

In the case of `O=C(O)c1cn(C2CC2)c2cc(N3CCNCC3)c(F)cc2c1=O` [CPX, ciprofloxacin, reference compound], the MIC in data set [2], in data set [3] and in data set [4] was greater than 16 µg/mL throughout.
